In series [1] the test system is HCV genotype 1b luciferase reporter replicon. The series can be described thus: microbe, parasite or virus in culture. Type of series: cell-based. To be noted: Hepatitis C virus, HuH-7-Luc/Neo-ET, 72 h, read-out: HCV Replicon EC50/EC95: EC50.
The nature of series [2]: Cytotoxicity by XTT staining in replicon cells. To be noted: human. On the procedure:
(§1) The plates were cultured for 24 hours prior to the addition of compounds. Six serial one half log dilutions of the test articles (high test concentration of 100.0 μM or high test concentration of 1.0 μM) and human interferon-alpha2b (high test 10.0 U/ml) were prepared in cell culture medium and added to the cultured cells in triplicate wells for each dilution. Six wells in the test plates received medium alone as an untreated control. Following 72 hours of culture in the presence of compound, one of the plates was used for the determination of cytotoxicity by staining with XTT and the other for antiviral efficacy by determination of luciferase reporter activity. Cytotoxicity and efficacy data were collected and imported into a customized Excel workbook for determination of the TC50 and EC50 values. […] The y-axis is the percent of virus control and the x-axis is the concentration of drug in μM. […] The y-axis is the percent of virus control and the x-axis is the concentration of drug in M.

The test system of series [3] is HCV genotype 1b luciferase reporter replicon. The experiment in a line: microbe, parasite or virus in culture. Type of series: cell-based. The method, then:
as §1

Series [4] relates to micro-patterned human hepatocyte co-cultures. The series can be described thus: Human Hepatocyte Co-Cultures (HepatoPac): cytotoxicity and hepatocyte health. Type of series: cell-based. To be noted: for IC50: Homo sapiens, Hepatocyte. On the procedure: Cytotoxicity and hepatocyte health were assessed in triplicate by measuring ALT leakage, urea production, albumin secretion and cellular ATP contents in micro-patterned human hepatocyte co-cultures (HepatoPac®, Hepregen Corporation) prepared by seeding cryopreserved human hepatocytes (single donor) and 3T3 J2 mouse fibroblasts in microtiter plates according to procedures established by Hepregen. Culture media was replaced with fresh media containing TA, test article, (0, 1, 10 or 30 μM) every 2 or 3 days through day 16. […] Cellular ATP levels were measured on days 9 and 21. ATP signals in stromal-only control cultures (murine 3T3 fibroblasts) were subtracted from those of human HepatoPac co-cultures to obtain hepatocyte-specific effects. See, Table 4, 5 and 6 below.

Setting [5] is: Hepatitis C virus; Huh-7 luc/neo ET cells, 72 hours, luciferase; read-out: HCV Replicon EC50/EC95: EC95.
Where [6] appears, read: Hepatitis C virus; read-out: EC50 in a replicon assay.
Where [7] appears, read: listed as stabilized phosphate prodrug (phosphoramidate) of β-D-2′-deoxy-2′-α-fluoro-2′-β-.
[8] abbreviates: listed as stabilized racemic phosphate prodrug (phosphoramidate) of β-D-2′-deoxy-2′-α-fluo.
The mark [9] stands for this setting: Hepatitis C virus, parent nucleosides; read-out: EC50 in a replicon assay.

Read-outs that look alike come from different tables or passages of the source.

Take `C[C@@]1(F)[C@H](O)C(CO)O[C@H]1n1cnc2c(N)nc(N)nc21` (stereo partly shown): the EC50 in series [1] amounted to 6.7 µM. In series [2], the CC50 at 72 h is over 100 µM.
Take `CC(C)OC(=O)[C@H](C)NP(=O)(OCC1O[C@@H](n2cnc3c(N)nc(N)nc32)[C@](C)(F)[C@@H]1O)Oc1ccccc1` (stereo partly shown): in series [3] (setting [5]), the EC95 amounted to 9.04 µM. The “Fold increase in activity compared to parent nucleoside” value (shortened to “Fold increase … to parent nucleoside”) in series [3] (Table 7) turned out to be 3. The EC50 in series [1] amounted to 2.1 µM. Also, the 50% cytotoxic concentration (CC50) at 72 h in series [2] was over 100 µM.
Regarding `CC(C)OC(=O)[C@H](C)N[P@@](=O)(OCC1O[C@@H](n2ccc(=O)[nH]c2=O)[C@](C)(F)[C@@H]1O)Oc1ccccc1` (stereo partly shown), the EC95 in series [3] (setting [5]) came to 0.31 µM. Moreover, the EC50 in series [1] was 0.052 µM. Also, the CC50 at 72 h in series [2] was over 100 µM.
On to `CCOc1nc(N)nc2c1ncn2[C@@H]1O[C@@H]2CO[P@](=O)(OC(C)C)O[C@H]2[C@@]1(C)F`, for which, in series [3] (setting [5]), the EC95 was 0.259 µM. For the same compound, the EC50 in series [1] is 0.045 µM. In series [2], this compound registered a CC50 at 72 h of over 100 µM.
`CNc1nc(N)nc2c1ncn2[C@@H]1OC(COP(=O)(N[C@@H](C)C(=O)OC(C)C)Oc2ccccc2)[C@@H](O)[C@@]1(C)F` (mixture of isomers) [Compound 5, isopropyl ((((R,S)-(2R,3R,4R,5R)-5-(2-amino-6-(methylamino)-9H-purin-9-yl)-4-fluoro-3-hydroxy-4-methyltetrahydrofuran-2-yl)methoxy)-phenoxy-phosphoryl)-L-alaninate]: the EC95 in series [3] (setting [5]) was 0.124 µM. In addition, the EC50 in series [3] (setting [6]) and in series [1] was 0.026 µM in each case. The “Fold increase … to parent nucleoside” value in series [3] (Table 7) is recorded as over 600. Further, the “fold increase in activity (versus parent nucleoside)” value in series [3] (setting [7]) is recorded as at least 870; in series [3] (setting [8]), at least 600. Besides, the CC50 at 72 h in series [2] was over 100 µM.
Take `CC(C)OC(=O)[C@H](C)NP(=O)(OCC1O[C@@H](n2cnc3c(N(C)C)nc(N)nc32)[C@](C)(F)[C@@H]1O)Oc1ccccc1` (mixture of isomers) [Compound 7, isopropyl ((((R,S)-(2R,3R,4R,5R)-5-(2-amino-6-(dimethylamino)-9H-purin-9-yl)-4-fluoro-3-hydroxy-4-methyltetrahydrofuran-2-yl)methoxy)-phenoxy-phosphoryl)-L-alaninate]: the EC95 in series [3] (setting [5]) turned out to be 0.071 µM. Besides, the EC50 in series [3] (setting [6]) amounted to 0.012 µM; in series [1], 0.0121 µM. The “Fold increase … to parent nucleoside” value in series [3] (Table 7) is over 890. Further, the “fold increase in activity (versus parent nucleoside)” value in series [3] (setting [7]) is given as > 1,300; in series [3] (setting [8]) it was over 890. In series [2], this compound displayed a CC50 at 72 h of over 100 µM.
Regarding `CNc1nc(N)nc2c1ncn2[C@@H]1O[C@H](CO)[C@@H](O)[C@@]1(C)F` [Compound 4, (2R,3R,4R,5R)-5-(2-amino-6-(methylamino)-9H-purin-9-yl)-4-fluoro-2-(hydroxymethyl)-4-methyltetrahydrofuran-3-ol], the EC50 in series [3] (setting [9]) and in series [1] was 15.7 µM each time. In series [2], the CC50 at 72 h was over 100 µM.
With `CNc1nc(N)nc2c1ncn2[C@@H]1OC(CO[P@](=O)(N[C@@H](C)C(=O)OC(C)C)Oc2ccccc2)[C@@H](O)[C@@]1(C)F` (stereo partly shown) [Compound 5-1], the EC95 in series [3] (setting [5]) worked out at 0.282 µM. For the same compound, the “Fold increase … to parent nucleoside” value in series [3] (Table 7) is listed as over 280. In series [1], the EC50 came out at 0.0551 µM. The compound also displayed a CC50 at 72 h in series [2] of over 100 µM.
Turning to `CN(C)c1nc(N)nc2c1ncn2[C@@H]1O[C@H](CO)[C@@H](O)[C@@]1(C)F` [Compound 6, (2R,3R,4R,5R)-5-(2-amino-6-(dimethylamino)-9H-purin-9-yl)-4-fluoro-2-(hydroxymethyl)-4-methyltetrahydrofuran-3-ol], the EC50 in series [3] (setting [9]) and in series [1] was 10.7 µM throughout. Also, the CC50 at 72 h in series [2] is over 100 µM.
Turning to `CN(c1nc(N)nc2c1ncn2[C@@H]1O[C@H](CO)[C@@H](O)[C@@]1(C)F)C1CC1` [Compound 8, (2R,3R,4R,5R)-5-(2-Amino-6-(N-methyl-cyclopropylamino)-9H-purin-9-yl)-4-fluoro-2-(hydroxymethyl)-4-methyltetrahydrofuran-3-ol], in series [1], the EC50 was 5.56 µM. In series [2], this compound showed a CC50 at 72 h of over 100 µM.
Take `CC(C)OC(=O)[C@H](C)NP(=O)(OCC1O[C@@H](n2cnc3c(N(C)C4CC4)nc(N)nc32)[C@](C)(F)[C@@H]1O)Oc1ccccc1` (stereo partly drawn) [Compound 9, isopropyl ((((R,S)-(2R,3R,4R,5R)-5-(2-amino-6-(N-methyl-cyclopropylamino)-9H-purin-9-yl)-4-fluoro-3-hydroxy-4-methyltetrahydrofuran-2-yl)methoxy)-phenoxy-phosphoryl)-L-alaninate]: the EC50 is 0.007 µM in series [3] (Hepatitis C virus, read-out: EC50 in a replicon assay) and 0.0091 µM in series [1]. For the same compound, the EC95 in series [3] (setting [5]) is 0.054 µM. The “Fold increase … to parent nucleoside” value in series [3] (Table 7) is recorded as over 600. The compound further showed a CC50 at 72 h in series [2] of over 100 µM.
For `CNc1nc(NC(=O)C(C)C)nc2c1ncn2[C@@H]1O[C@H](CO)[C@@H](O)[C@@]1(C)F` [Compound 15, (2R,3R,4R,5R)-5-(2-isobutyramido-6-methylamino-9H-purin-9-yl)-4-fluoro-2-(hydroxymethyl)-4-methyltetrahydrofuran-3-ol], the EC50 in series [1] was over 100 µM. The compound further yielded a CC50 at 72 h in series [2] of over 100 µM.
As for `CNc1nc(NC(=O)C(C)C)nc2c1ncn2[C@@H]1OC(COP(=O)(N[C@@H](C)C(=O)OC(C)C)Oc2ccccc2)[C@@H](O)[C@@]1(C)F` (stereo partly drawn) [Compound 16, isopropyl ((((R,S)-(2R,3R,4R,5R)-5-(2-isobutyramido-6-methylamino-9H-purin-9-yl)-4-fluoro-3-hydroxy-4-methyltetrahydrofuran-2-yl)methoxy)-phenoxy-phosphoryl)-L-alaninate], the EC95 in series [3] (setting [5]) worked out at 3.69 µM. The EC50 in series [1] is 0.576 µM. For the same compound, the CC50 at 72 h in series [2] was over 100 µM.
The corresponding values for `CCN(C)c1nc(N)nc2c1ncn2[C@@H]1O[C@H](CO)[C@@H](O)[C@@]1(C)F` [Compound 17, (2R,3R,4R,5R)-5-(2-amino-6-(N-methyl-ethylamino)-9H-purin-9-yl)-4-fluoro-2-(hydroxymethyl)-4-methyltetrahydrofuran-3-ol] are 65.4 µM, 11.5 µM and over 100 µM.
Turning to `CCCN(C)c1nc(N)nc2c1ncn2[C@@H]1O[C@H](CO)[C@@H](O)[C@@]1(C)F` [Compound 19, (2R,3R,4R,5R)-5-(2-amino-6-(N-methyl-propylamino)-9H-purin-9-yl)-4-fluoro-2-(hydroxymethyl)-4-methyltetrahydrofuran-3-ol], the EC50 in series [1] turned out to be 7.47 µM. In series [2], this compound returned a CC50 at 72 h of over 100 µM.
For the compound `COc1nc(N)nc2c1ncn2[C@@H]1O[C@H](COP(=O)(N[C@@H](C)C(=O)OCC(C)(C)C)Oc2cccc3ccccc23)[C@@H](O)[C@@]1(C)O` (stereo partly shown) [INX-189], the IC50 in series [4] (48 h, Table 5, Day 2, read-out: Effect on Albumin Secretion, 50% Inhibitory Concentration (IC50)) is 13.6 µM; in series [4] (48 h, Table 6, Day 2, read-out: Effect on Albumin Secretion, 50% Inhibitory Concentration (IC50)), over 30 µM; in series [4] (120 h, Table 5, Day 5, read-out: Effect on Albumin Secretion, 50% Inhibitory Concentration (IC50)), 3.1 µM; in series [4] (120 h, Table 6, Day 5, read-out: Effect on Albumin Secretion, 50% Inhibitory Concentration (IC50)), 4.2 µM; in series [4] (168 h, Table 5, Day 7, read-out: Effect on Albumin Secretion, 50% Inhibitory Concentration (IC50)), 3.2 µM; in series [4] (168 h, Table 6, Day 7, read-out: Effect on Albumin Secretion, 50% Inhibitory Concentration (IC50)), 1.8 µM. Moreover, the IC50 is 8.1 µM in series [4] (216 h, Day 9, read-out: Effect on Cellular ATP Concentrations, 50% Inhibitory Concentration (IC50)); 2.4 µM in series [4] (216 h, Table 5, Day 9, read-out: Effect on Albumin Secretion, 50% Inhibitory Concentration (IC50)); 1.8 µM in series [4] (216 h, Table 6, Day 9, read-out: Effect on Albumin Secretion, 50% Inhibitory Concentration (IC50)); 1.3 µM in series [4] (288 h, Table 6, Day 12, read-out: Effect on Albumin Secretion, 50% Inhibitory Concentration (IC50)); under 1 µM in series [4] (384 h, Table 6, Day 16, read-out: Effect on Albumin Secretion, 50% Inhibitory Concentration (IC50)); 0.1 µM in series [4] (504 h, Day 21, read-out: Effect on Cellular ATP Concentrations, 50% Inhibitory Concentration (IC50)). Moreover, the IC50 in series [4] (504 h, Table 6, Day 21, read-out: Effect on Albumin Secretion, 50% Inhibitory Concentration (IC50)) is under 1 µM. Further, in series [4] (text b588), the “cytotoxicity to human co-cultured hepatocytes (in words)” value was “highly cytotoxic”.

The values are drawn from patent publication US12084473B2, “β-D-2′-deoxy-2′-α-fluoro-2′-β-C-substituted-2-modified-N6-substituted purine nucleotides for HCV treatment” (Atea Pharmaceuticals, Inc., priority 2015, dated 2024).
